# Assay results as given in paper PMC7721913 (The Journal of Cell Biology, 2020).
# Read-outs that look alike come from different tables or passages of the source. Ends that are not written are not given here.
# Experiments:
# [1] = biological target: KLC1 TPR1-6 fragment (KLC1: 205-501) (Homo sapiens, UniProt Q07866); assay: ITC binding of SFPQ peptides to KLC1
# [2] = biological target: KLC1 TPR1-6; conditions: cited from earlier work
# [3] = tested on: SFPQ; assay: Coimmunoprecipitation of endogenous SFPQ from DRG lysate, Western blot; format: binding, rat; conditions: DRG sensory neuron lysate
# KLC1 TPR1-6 fragment (KLC1: 205-501), sequence (Q07866 205-501): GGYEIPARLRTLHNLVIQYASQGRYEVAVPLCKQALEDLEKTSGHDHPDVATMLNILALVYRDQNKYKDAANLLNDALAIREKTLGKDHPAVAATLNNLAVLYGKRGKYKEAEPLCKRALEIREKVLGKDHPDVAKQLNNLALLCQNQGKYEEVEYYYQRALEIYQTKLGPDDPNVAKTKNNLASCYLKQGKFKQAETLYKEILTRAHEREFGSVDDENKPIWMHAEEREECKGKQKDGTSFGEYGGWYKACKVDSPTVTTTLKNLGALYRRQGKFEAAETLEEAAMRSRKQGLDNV
substance,measurement,setting,value
ESEMEDAAHEHQANLLR [SFPQ^Y527A peptide],binding to KLC1 (in words),"[1]; ITC, 25°C, pH 7.5",did not bind to KLC1
same,ΔS,"[1]; ITC, 20 mM Hepes (pH 7.5), 150 mM NaCl, 0.5 mM TCEP, 2% DMSO, 25°C",No binding
same,ΔH,"[1]; ITC, 20 mM Hepes (pH 7.5), 150 mM NaCl, 0.5 mM TCEP, 2% DMSO, 25°C, single-site model",No binding
ESEMEDAYHEHQANLLR [WT SFPQ peptide],Kd,[1],3.83 ± 2.31 µM
EYTCPTEDIYLE [JIP1: EYTCPTEDIYLE],Kd,"[2]; KLC1: 228-495, ref Zhu et al., 2012",9.4 ± 5.85 µM
KIF1A: axonal transport motor protein in DRGs,coimmunoprecipitation with SFPQ (in words),[3],none of these kinesins significantly coimmunoprecipitates with SFPQ
KIF3A: kinesin transporting RNA granules in neurons,coimmunoprecipitation with SFPQ (in words),[3],none of these kinesins significantly coimmunoprecipitates with SFPQ
TCPTEDIYLE [JIP1: TCPTEDIYLE],Kd,"[2]; KLC1: 205-502, ref Nguyen et al., 2018",5 ± 0.5 µM
